Assay results taken from patent US10030059B2, “Modulators of gamma-C-cytokine activity” (Bioniz, LLC, priority 2015, dated 2018).
Peptide text beside a SMILES is read from it.

Tested on: T-cells in HAM/TSP patient PBMC
Assay: Ex vivo spontaneous T-cell proliferation assay using HAM/TSP peripheral blood
Format: cell-based, human
Settings: HAM/TSP peripheral blood ex vivo culture
Method: Proliferation assays were performed on HAM/TSP patient blood samples with and without the addition of BNZ-γ. These assays evaluated the ability of BNZ-γ to block the function of cytokines, such as IL-2 and IL-15, present in the ex vivo HAM/TSP patient blood culture and prevent spontaneous T-cell proliferation in these samples.
In an ex vivo spontaneous T-cell proliferation assay, PBMC from HAM/TSP patient was cultured at 1×10(6) cells per well of a 96 well plate in RPMI-10% FCS. Increasing concentrations of BNZ-γ peptide were added to each well. As a control, an irrelevant peptide was used in similar fashion. The cells were incubated in a 37° C. CO2 incubator for 3, 4, and 6 days. The amount of 1 μCi of ^3H-thymidine was added to the cells. After an additional 6 hour incubation, cells were harvested their proliferation rate was measured. As indicated in FIG. 4A-FIG. 4D, BNZ-γ peptide inhibits the spontaneous proliferation of T-cells in HAM/TSP culture at a concentration of about 1 μg/ml.
Other immunological markers were additionally measured in this assay. The percentage of the viral specific CD8 cells was measured during the ex vivo culture using viral protein tetramers. The population of CD4+CD25+ cells, a marker of T-cell activation, as well as Ki67 staining, a marker of T-cell proliferation, was monitored in a flow cytometry assay.

CC[C@H](C)[C@H](N)C(=O)N[C@@H](CCCCN)C(=O)N[C@@H](CCC(=O)O)C(=O)N[C@@H](Cc1ccccc1)C(=O)N[C@@H](CC(C)C)C(=O)N[C@@H](CCC(N)=O)C(=O)N[C@@H](CCCNC(=N)N)C(=O)N[C@@H](Cc1ccccc1)C(=O)N[C@H](C(=O)N[C@@H](Cc1c[nH]cn1)C(=O)N[C@H](C(=O)N[C@H](C(=O)N[C@@H](CCC(N)=O)C(=O)N[C@@H](CO)C(=O)N[C@H](C(=O)N[C@H](C(=O)N[C@@H](CC(N)=O)C(=O)N[C@H](C(=O)N[C@@H](CO)C(=O)O)[C@@H](C)O)[C@@H](C)CC)[C@@H](C)CC)C(C)C)[C@@H](C)CC)[C@@H](C)CC [BNZ-γ, I-K-E-F-L-Q-R-F-I-H-I-V-Q-S-I-I-N-T-S] (H-IKEFLQRFIHIVQSIINTS-OH)
percent of live cells by Guava staining: not impacted
